For orientation: Kd means a measure of binding affinity in units of concentration.

The source of these data is patent publication US20260116920A1, “HUMAN TRANSFERRIN RECEPTOR BINDING PEPTIDE” (PEPTIDREAM INC., priority 2021, published 2026).

Molecules are shown by their SMILES. Starred links: 1 amine or outer side, 2 acyl side, 3 side chain; linkers in the order of their positions; H or OH if unused. Positions of bridges follow the written chain, without caps; N, C: chain ends. Non-standard residues stand in square brackets, D forms with d. Residues, ends and D or L forms follow the SMILES beside them. Groups on a side chain read outwards from the residue. *: point of attachment. Trp(1-CH2COOH) = N[C@@H](Cc1cn(CC(=O)O)c2ccccc12)C(=O)O; X3 = CN([C@@H](Cc1cccc(C(=O)[*:3])c1)C(=O)[*:2])[*:1]; NMePhe(4-COOH) = CN[C@@H](Cc1ccc(C(=O)O)cc1)C(=O)O; X1 = O=C([C@H](Cc1cccc(C(=O)[*:3])c1)N[*:1])[*:2]; Nle(6-morpholino) = N[C@@H](CCCCN1CCOCC1)C(=O)O; NMePhe(3-Cl) = CN[C@@H](Cc1cccc(Cl)c1)C(=O)O; Piperazinyl(4-CH2COOH) = O=C(O)CN1CCN(*)CC1; 3Pal(6-NH2) = Nc1ccc(C[C@H](N)C(=O)O)cn1; NMeY = CN[C@@H](Cc1ccc(O)cc1)C(=O)O; NH(CH2CH2O)4Me = COCCOCCOCCOCCN*; 4Pal = N[C@@H](Cc1ccncc1)C(=O)O; PEG4 = NCCOCCOCCOCCOCCC(=O)O; Carboxymethyl = O=C(O)C*; CO = O=C([*:1])[*:2]

For this assay, the target named is T1, human transferrin receptor (hTfR) (Homo sapiens, UniProt P02786).
T1 construct: made in house
T1 sequence (P02786 89-760 limits assumed): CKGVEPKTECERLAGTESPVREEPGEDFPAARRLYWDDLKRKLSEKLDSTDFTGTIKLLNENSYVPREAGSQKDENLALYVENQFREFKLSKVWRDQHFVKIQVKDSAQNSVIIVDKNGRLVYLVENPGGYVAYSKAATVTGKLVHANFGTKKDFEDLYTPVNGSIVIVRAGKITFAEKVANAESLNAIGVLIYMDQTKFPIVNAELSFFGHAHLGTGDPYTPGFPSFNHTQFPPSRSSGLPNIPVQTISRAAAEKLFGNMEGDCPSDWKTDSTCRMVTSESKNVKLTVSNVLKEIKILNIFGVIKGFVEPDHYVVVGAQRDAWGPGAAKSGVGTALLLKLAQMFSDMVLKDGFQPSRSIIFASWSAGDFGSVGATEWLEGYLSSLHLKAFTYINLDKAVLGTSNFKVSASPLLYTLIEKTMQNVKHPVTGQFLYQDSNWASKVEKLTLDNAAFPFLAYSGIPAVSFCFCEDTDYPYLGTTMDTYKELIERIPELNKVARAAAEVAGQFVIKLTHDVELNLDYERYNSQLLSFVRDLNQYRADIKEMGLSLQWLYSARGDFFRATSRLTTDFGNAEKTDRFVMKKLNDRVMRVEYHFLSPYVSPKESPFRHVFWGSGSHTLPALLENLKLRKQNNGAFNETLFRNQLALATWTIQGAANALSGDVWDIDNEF
The assay can be described thus: Evaluation of molecular interaction between transferrin receptor (hTfR) and peptide using surface plasmon resonance (SPR). In kind it is binding. The conditions noted are these: surface plasmon resonance, binding to hTfR; KD class symbol; read-out: SPR (KD value). The procedure, abridged: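 Using a Ni-NTA surface bearing covalently coupled hTfR dimer, peptides were tested at five concentrations from 5 to 100 nM. Running buffer was 10 mM HEPES pH 8.0, 150 mM NaCl, 0.05% Tween 20, 0.1% BSA, 1.0% DMSO; single-cycle sensorgrams were least-squares fitted for KD.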
On to `CC[C@H](C)[C@@H]1NC(=O)[C@H](Cc2ccc(OCC(=O)O)cc2)NC(=O)[C@H](Cc2ccc(N)nc2)NC(=O)[C@H](CC(N)=O)NC(=O)[C@H](Cc2cn(CC(=O)O)c3ccccc23)NC(=O)[C@H](C(C)C)NC(=O)[C@H](Cc2cccc(Cl)c2)N(C)C(=O)[C@H](C(C)C)NC(=O)[C@H](C)NC(=O)CSC[C@@H](C(=O)NCCOCCOCCOCCOCCC(N)=O)NC(=O)[C@H](Cc2ccc(O)cc2)N(C)C(=O)[C@H](Cc2ccncc2)NC(=O)[C@H](CCCNC(=N)N)NC(=O)[C@H](CCC(=O)NCCOCCOCCOCCOC)NC(=O)[C@H]([C@@H](C)CC)NC1=O` [compound 117], for which the Kd was in the range of 1 to 100 nM.
As for `CC[C@H](C)[C@@H]1NC(=O)[C@H](Cc2ccc(OCC(=O)O)cc2)NC(=O)[C@H](Cc2ccc(N)nc2)NC(=O)[C@H](CC(N)=O)NC(=O)[C@H](Cc2c[nH]c3ccccc23)NC(=O)[C@H](C(C)C)NC(=O)[C@H](Cc2cccc(Cl)c2)N(C)C(=O)[C@H](C(C)C)NC(=O)[C@H](C)NC(=O)CSC[C@@H](C(=O)NCCOCCOCCOCCOCCC(N)=O)NC(=O)[C@H](Cc2ccc(O)cc2)N(C)C(=O)[C@H](Cc2ccncc2)NC(=O)[C@H](CCCCNC(=O)N2CCN(CC(=O)O)CC2)NC(=O)[C@H](CCC(=O)NCCOCCOCCOCCOC)NC(=O)[C@H]([C@@H](C)CC)NC1=O` [compound 118] ({CH2CO}-AV[NMePhe(3-Cl)]VWN[3Pal(6-NH2)]Y(Carboxymethyl)IIE(NH(CH2CH2O)4Me)K([CO-Piperazinyl(4-CH2COOH)])[4Pal][NMeY]C[PEG4]-NH2; thioether N-15), the figure is 1 to 100 nM.
As for `CC[C@H](C)[C@@H]1NC(=O)[C@H](Cc2ccc(OCC(=O)O)cc2)NC(=O)[C@H](Cc2ccc(O)cc2)NC(=O)[C@H](CC(N)=O)NC(=O)[C@H](Cc2cn(CC(=O)O)c3ccccc23)NC(=O)[C@H](C(C)C)NC(=O)[C@H](Cc2cccc(Cl)c2)N(C)C(=O)[C@H](C(C)C)NC(=O)[C@H](C)NC(=O)CSC[C@@H](C(=O)NCCOCCOCCOCCOCCC(N)=O)NC(=O)[C@H](Cc2ccc(O)cc2)N(C)C(=O)[C@H](Cc2ccccc2)NC(=O)[C@H](CCCCN2CCOCC2)NC(=O)[C@H](CCC(=O)NCCOCCOCCOCCOC)NC(=O)[C@H]([C@@H](C)CC)NC1=O` [compound 119] ({CH2CO}-AV[NMePhe(3-Cl)]V[Trp(1-CH2COOH)]NYY(Carboxymethyl)IIE(NH(CH2CH2O)4Me)[Nle(6-morpholino)]F[NMeY]C[PEG4]-NH2; thioether N-15), the figure is < 1 nM; as for `CC[C@H](C)[C@@H]1NC(=O)[C@H](Cc2ccc(OCC(=O)O)cc2)NC(=O)[C@H](Cc2ccc(O)cc2)NC(=O)[C@H](CC(N)=O)NC(=O)[C@H](Cc2c[nH]c3ccccc23)NC(=O)[C@H](C(C)C)NC(=O)[C@H](Cc2cccc(Cl)c2)N(C)C(=O)[C@H](C(C)C)NC(=O)[C@H](C)NC(=O)CSC[C@@H](C(=O)NCCOCCOCCOCCOCCC(N)=O)NC(=O)[C@H](Cc2ccc(O)cc2)N(C)C(=O)[C@H](Cc2ccccc2)NC(=O)[C@H](CCCCN2CCOCC2)NC(=O)[C@H](CCC(=O)NCCOCCOCCOCCOC)NC(=O)[C@H]([C@@H](C)CC)NC1=O` [compound 120], 1 to 100 nM; as for `CC[C@H](C)[C@@H]1NC(=O)[C@H](Cc2ccc(OCC(=O)O)cc2)NC(=O)[C@H](Cc2ccc(O)cc2)NC(=O)[C@H](CC(N)=O)NC(=O)[C@H](Cc2c[nH]c3ccccc23)NC(=O)[C@H](C(C)C)NC(=O)[C@H](Cc2cccc(Cl)c2)N(C)C(=O)[C@H](C(C)C)NC(=O)[C@H](C)NC(=O)CSC[C@@H](C(=O)NCCOCCOCCOCCOCCC(N)=O)NC(=O)[C@H](Cc2ccc(O)cc2)N(C)C(=O)[C@H](Cc2ccccc2)NC(=O)[C@H](CCCCN)NC(=O)[C@H](CCC(=O)NCCOCCOCCOCCOC)NC(=O)[C@H]([C@@H](C)CC)NC1=O` [compound 121] ({CH2CO}-AV[NMePhe(3-Cl)]VWNYY(Carboxymethyl)IIE(NH(CH2CH2O)4Me)KF[NMeY]C[PEG4]-NH2; thioether N-15), 1 to 100 nM.
As for `CC[C@H](C)[C@@H]1NC(=O)[C@H](Cc2ccc(OCC(=O)O)cc2)NC(=O)[C@H](Cc2ccc(O)cc2)NC(=O)[C@H](CC(N)=O)NC(=O)[C@H](Cc2c[nH]c3ccccc23)NC(=O)[C@H](C(C)C)NC(=O)[C@H](Cc2cccc(Cl)c2)N(C)C(=O)[C@H](C(C)C)NC(=O)[C@H](C)NC(=O)CSC[C@@H](C(=O)NCCOCCOCCOCCOCCC(N)=O)NC(=O)[C@H](Cc2ccc(O)cc2)N(C)C(=O)[C@H](Cc2ccccc2)NC(=O)[C@H](CCCCN(C)C)NC(=O)[C@H](CCC(=O)NCCOCCOCCOCCOC)NC(=O)[C@H]([C@@H](C)CC)NC1=O` [compound 122], the figure is 1 to 100 nM.
For the compound `CC[C@H](C)[C@@H]1NC(=O)[C@H](Cc2ccc(OCC(=O)O)cc2)NC(=O)[C@H](Cc2ccc(O)cc2)NC(=O)[C@H](CC(N)=O)NC(=O)[C@H](Cc2c[nH]c3ccccc23)NC(=O)[C@H](C(C)C)NC(=O)[C@H](Cc2cccc(Cl)c2)N(C)C(=O)[C@H](C(C)C)NC(=O)[C@H](C)NC(=O)CSC[C@@H](C(=O)NCCOCCOCCOCCOCCC(N)=O)NC(=O)[C@H](Cc2ccc(O)cc2)N(C)C(=O)[C@H](Cc2ccccc2)NC(=O)[C@H](CCC(N)=O)NC(=O)[C@H](CCC(=O)NCCOCCOCCOCCOC)NC(=O)[C@H]([C@@H](C)CC)NC1=O` [compound 123] ({CH2CO}-AV[NMePhe(3-Cl)]VWNYY(Carboxymethyl)IIE(NH(CH2CH2O)4Me)QF[NMeY]C[PEG4]-NH2; thioether N-15), the Kd lay in the range of 1 to 100 nM.
Consider `CC[C@H](C)[C@@H]1NC(=O)[C@H](Cc2ccc(OCC(=O)O)cc2)NC(=O)[C@H](Cc2ccc(O)cc2)NC(=O)[C@H](CC(N)=O)NC(=O)[C@H](Cc2c[nH]c3ccccc23)NC(=O)[C@H](C(C)C)NC(=O)[C@H](Cc2cccc(Cl)c2)N(C)C(=O)[C@H](C(C)C)NC(=O)[C@H](C)NC(=O)CSC[C@@H](C(=O)NCCOCCOCCOCCOCCC(N)=O)NC(=O)[C@H](Cc2ccc(O)cc2)N(C)C(=O)[C@H](CCC(=O)NCCOCCOCCOCCOC)NC(=O)[C@H](CCCNC(=N)N)NC(=O)[C@H](CCC(=O)NCCOCCOCCOCCOC)NC(=O)[C@H]([C@@H](C)CC)NC1=O` [compound 124] ({CH2CO}-AV[NMePhe(3-Cl)]VWNYY(Carboxymethyl)IIE(NH(CH2CH2O)4Me)RE(NH(CH2CH2O)4Me)[NMeY]C[PEG4]-NH2; thioether N-15), for which the Kd lay within 1 to 100 nM.
With `CC[C@H](C)[C@@H]1NC(=O)[C@H](Cc2ccc(OCC(=O)O)cc2)NC(=O)[C@H](Cc2ccc(O)cc2)NC(=O)[C@H](CC(N)=O)NC(=O)[C@H](Cc2c[nH]c3ccccc23)NC(=O)[C@H](C(C)C)NC(=O)[C@H](Cc2cccc(Cl)c2)N(C)C(=O)[C@H](C(C)C)NC(=O)[C@H](C)NC(=O)CSC[C@@H](C(=O)NCC(=O)N[C@H](CO)C(=O)N[C@H](CO)C(=O)N[C@H](CO)C(=O)N[C@H](CO)C(=O)N[C@H](CO)C(N)=O)NC(=O)[C@H](Cc2ccc(O)cc2)N(C)C(=O)[C@H](CCC(=O)NCCOCCOCCOCCOC)NC(=O)[C@H](CCCNC(=N)N)NC(=O)[C@H](CCC(=O)NCCOCCOCCOCCOC)NC(=O)[C@H]([C@@H](C)CC)NC1=O` [compound 125], the Kd lay in the range of 1 to 100 nM.
As for `CC[C@H](C)[C@@H]1NC(=O)[C@H](Cc2ccc(OCC(=O)O)cc2)NC(=O)[C@H](Cc2ccc(O)cc2)NC(=O)[C@H](CC(N)=O)NC(=O)[C@H](Cc2c[nH]c3ccccc23)NC(=O)[C@H](C(C)C)NC(=O)[C@H](Cc2cccc(Cl)c2)N(C)C(=O)[C@H](C(C)C)NC(=O)[C@H](C)NC(=O)CSC[C@@H](C(=O)NCCOCCOCCOCCOCCC(N)=O)NC(=O)[C@H](Cc2ccc(O)cc2)N(C)C(=O)[C@H](Cc2cccc(C(=O)NCCOCCOCCOCCOC)c2)NC(=O)[C@H](CCCNC(=N)N)NC(=O)[C@H](CCC(=O)NCCOCCOCCOCCOC)NC(=O)[C@H]([C@@H](C)CC)NC1=O` [compound 126], the Kd was in the range of 1 to 100 nM.
`CC[C@H](C)[C@@H]1NC(=O)[C@H](Cc2ccc(OCC(=O)O)cc2)NC(=O)[C@H](Cc2ccc(O)cc2)NC(=O)[C@H](CC(N)=O)NC(=O)[C@H](Cc2c[nH]c3ccccc23)NC(=O)[C@H](C(C)C)NC(=O)[C@H](Cc2cccc(Cl)c2)N(C)C(=O)[C@H](C(C)C)NC(=O)[C@H](C)NC(=O)CSC[C@@H](C(=O)NCCOCCOCCOCCOCCC(N)=O)NC(=O)[C@H](Cc2ccc(C(=O)NCCOCCOCCOCCOC)cc2)N(C)C(=O)[C@H](Cc2cccc(C(=O)NCCOCCOCCOCCOC)c2)NC(=O)[C@H](CCCNC(=N)N)NC(=O)[C@H](CCC(N)=O)NC(=O)[C@H]([C@@H](C)CC)NC1=O` [compound 127] ({CH2CO}-AV[NMePhe(3-Cl)]VWNYY(Carboxymethyl)IIQR[X1](NH(CH2CH2O)4Me)[NMePhe(4-COOH)](NH(CH2CH2O)4Me)C[PEG4]-NH2; thioether N-15): the Kd lay in the range of 1 to 100 nM.
As for `CC[C@H](C)[C@@H]1NC(=O)[C@H](Cc2ccc(OCC(=O)O)cc2)NC(=O)[C@H](Cc2ccc(O)cc2)NC(=O)[C@H](CC(N)=O)NC(=O)[C@H](Cc2c[nH]c3ccccc23)NC(=O)[C@H](C(C)C)NC(=O)[C@H](Cc2cccc(Cl)c2)N(C)C(=O)[C@H](C(C)C)NC(=O)[C@H](C)NC(=O)CSC[C@@H](C(=O)NCCOCCOCCOCCOCCC(N)=O)NC(=O)[C@H](Cc2cccc(C(=O)NCCOCCOCCOCCOC)c2)N(C)C(=O)[C@H](Cc2cccc(C(=O)NCCOCCOCCOCCOC)c2)NC(=O)[C@H](CCCNC(=N)N)NC(=O)[C@H](CCC(N)=O)NC(=O)[C@H]([C@@H](C)CC)NC1=O` [compound 128] ({CH2CO}-AV[NMePhe(3-Cl)]VWNYY(Carboxymethyl)IIQR[X1](NH(CH2CH2O)4Me)[X3](NH(CH2CH2O)4Me)C[PEG4]-NH2; thioether N-15), the figure is 1 to 100 nM.
On to `CC[C@H](C)[C@@H]1NC(=O)[C@H](Cc2ccc(OCC(=O)O)cc2)NC(=O)[C@H](Cc2ccc(O)cc2)NC(=O)[C@H](CC(N)=O)NC(=O)[C@H](Cc2c[nH]c3ccccc23)NC(=O)[C@H](C(C)C)NC(=O)[C@H](Cc2cccc(Cl)c2)N(C)C(=O)[C@H](C(C)C)NC(=O)[C@H](C)NC(=O)CSC[C@@H](C(=O)NCC(=O)N[C@H](CO)C(=O)N[C@H](CO)C(=O)N[C@H](CO)C(=O)N[C@H](CO)C(=O)N[C@H](CO)C(N)=O)NC(=O)[C@H](Cc2cccc(C(=O)NCCOCCOCCOCCOC)c2)N(C)C(=O)[C@H](Cc2cccc(C(=O)NCCOCCOCCOCCOC)c2)NC(=O)[C@H](CCCNC(=N)N)NC(=O)[C@H](CCC(N)=O)NC(=O)[C@H]([C@@H](C)CC)NC1=O` [compound 129], for which the Kd fell in the range of 1 to 100 nM.
